Assay results taken from a melting point compilation (Tetko et al.; mined from patent text by program, amines drawn as free bases though some values may be those of a salt).

Row | Structure (SMILES) | melting point
1 | CC(=O)NCCOC(=O)C1CCn2c1cc(C)c2C(=O)c1ccc(Cl)n1C (stereo not given) | 156 to 157 °C
2 | Cc1cc(O)c(O)c(O)c1 | 114 to 121 °C
3 | N#Cc1c(-c2cccs2)[nH]c(C(F)(F)F)c1Cl | 221 to 223 °C
4 | COc1ccc(C2(C#Cc3ccc([N+](=O)[O-])cc3)CCC3(CC2)OCCO3)cc1OC1CCCC1 | 58 to 59 °C
5 | COCCc1nc2c(N)nc3c(c2n1CCCNC(=O)N1CCOCC1)CCCC3 | 172 to 173 °C
6 | CC1CC(C(=O)O)NC1=O (stereo not given) | 169 to 170 °C
7 | CC(C)(C)OC(=O)Nc1cc(CC#N)c(I)cc1[N+](=O)[O-] | 124 to 126 °C
8 | CCOCc1nc2c(N)nc3c(c2n1CC(C)(C)OCCS(C)(=O)=O)CCCC3 | 150 to 153 °C
9 | Cc1[nH]c(C(C)(C)C)nc1CO | 196 °C
10 | Nc1nc(N)c2ncn(COCCOCCO)c2n1 | 76 to 82 °C
11 | CCn1cc(C(=O)O)c(=O)cc1-c1ccc2c(c1)OCO2 | 269 to 270 °C
12 | Clc1ncnc(Cl)c1Oc1ccccc1 | 89 to 90 °C
13 | Nc1ccccc1C(=O)C1CCC1 | 55 °C
14 | CNC(=C[N+](=O)[O-])NCCCSc1nccc(NC(N)=NCC(F)(F)F)n1 | 189 to 191 °C
15 | O=C(O)c1ccc(OCCCCCCCCCCO)cc1 | 115 to 117 °C
16 | CC(C)C[C@H](NC(=O)C1(N)CCCCC1)C(=O)NCC(N)=O | 136 to 147 °C
17 | CC(=O)c1ccc(CBr)s1 | 58 to 59 °C
18 | O=[N+]([O-])c1ccccc1-c1cnoc1 | 51 to 54 °C
19 | CCCCCCCCCCCCCCCC(=O)OCC1OC(n2cc(C)c(=O)[nH]c2=O)CC1F (stereo not given) | 65 to 66 °C
20 | CCOC(=O)C(C)(C)Oc1ccc2c(c1)C=C(c1nccn1C)CO2 | 210 to 215 °C
21 | CC1=C(CC(=O)O)c2cc(F)c(F)cc2C1=Cc1ccc(S(C)=O)cc1 (stereo not given) | 200 to 210 °C

Row | Structure (SMILES) | melting point
22 | O=C(O)COc1cc(F)ccc1C(=O)NCc1nc2c(F)c(F)cc(F)c2s1 | 172 to 174 °C
23 | CONC(=O)Cc1cccc(C(=O)c2ccc(Cl)cc2)c1C | 150 °C
24 | N=C1c2c(F)cccc2S(=O)(=O)N1CC1CC1 | 90 to 93 °C
25 | O=C(NCCCCCn1ccnc1)c1ccc(Cl)s1 | 123 to 125 °C
26 | COC(=O)c1ccc(S(C)(=O)=O)c(-c2cc(C(C)C)no2)c1 | 102 to 104 °C
27 | Cc1cc(NC(=O)C2CSc3sccc3C2=O)no1 (stereo not given) | 143 to 146 °C
28 | NC(=O)c1ccc(-c2ccc(Cl)cc2)nc1 | 245 to 258 °C
29 | Nc1ccc(Oc2ncc(Cl)cn2)cc1 | 125 °C
30 | O=C1C2C(C(=O)N1c1ccccc1S)C1(Cl)C(Cl)=C(Cl)C2(Cl)C1(Cl)Cl (stereo not given) | 195 to 198 °C
31 | CCOC(=O)c1ccc(/C=C(\C)c2ccc3c(c2)C(C)(C)CC3(C)C)cc1 | 70 to 71 °C
32 | O=[N+]([O-])C=C1CN=C(c2ccccc2F)c2cc(I)ccc2N1 | 214 to 216 °C
33 | COc1ccc(C(=O)c2ccccn2)cc1OC | 91.5 to 93 °C
34 | CC1(C)CCc2c(N3CCOCC3)nc3sc4c(NCc5ccccn5)ncnc4c3c2C1 | 218 °C
35 | CN1CC(CNC(=N)NC(=O)c2ccccc2)CC2c3cccc4[nH]cc(c34)CC21 (stereo not given) | 190 to 191 °C
36 | CCc1ncnc(NC2CCc3cc(OC)ccc3C2)c1Cl (stereo not given) | 70 to 71 °C
37 | CCC1CCCCn2c1nc(-c1ccncn1)cc2=O (racemic) | 128 to 130 °C
38 | O=C(c1ccc(Cl)c(Cl)c1)N1CCCC(c2ccc(Br)s2)=N1 | 138 to 140 °C
39 | CCC(O)C#Cc1ccc2c(=O)c(-c3ncc[nH]3)c(N)n(CC3CC3)c2n1 (stereo not given) | 252 °C
40 | CC(=O)OCC1C(O)C2OC(C)(C)OC2C2NC(=O)c3cc4c(cc3C12)OCO4 (stereo not given) | > 200 °C
41 | COP(=O)(NNC(C)(C)C)OC | 61 to 68 °C
42 | CCCc1nc2c(C(F)(F)F)cccc2c(O)c1C(=O)O | 148 °C

Row | Structure (SMILES) | melting point
43 | Nc1ccc(-c2noc(-c3cnn4c(C(F)(F)F)cc(-c5cccc(C(F)(F)F)c5)nc34)n2)cn1 | 264 °C
44 | CC(C)(C)n1nc2c(S)ncnc2c1O | > 300 °C
45 | Clc1ccc(SC(Cn2ccnc2)C23CC4CC(CC(C4)C2)C3)cc1Cl (stereo not given) | 179 to 181 °C
46 | CCn1c(=O)c2c(nc(/C=C/c3cccc(OC)c3OC(C)=O)n2C)n(CC)c1=O | 202 to 203 °C
47 | O=Cn1cc(Cl)c(-c2cccc(Cl)c2Cl)c1 | 130 to 131 °C
48 | OC1CSC(Oc2cccnc2-c2cncnc2)C(O)C1O (stereo not given) | 195 °C
49 | Cc1cc(OC(F)F)nc(NC(=O)NS(=O)(=O)c2ccccn2)n1 | 150 to 151 °C
50 | CCCOC(=O)C(Br)=CC1C(C(=O)OC(C#N)c2cccc(Oc3ccccc3)c2)C1(C)C (stereo not given) | 64 °C
51 | CN(SC(C)(C)C)C(=O)Nc1ccc(Cl)c(Cl)c1 | 127 °C
52 | CC(=O)OCC(COCn1cnc2c(=O)[nH]c(N)nc21)OC(C)=O (stereo not given) | 222 to 224 °C
53 | CNC(=O)c1cnn(-c2ccc(OC)cc2)c1Cl | 144 to 146 °C
54 | O=C1CCCC(=O)C1C(=O)c1ccc(Cl)cc1Cl | 138 to 140 °C
55 | Cc1c(C)c2c(c(C)c1OCc1ccccc1)CC[C@@](C)(CO)O2 | 66 to 69.5 °C
56 | OC(CN1CCCCC1)c1cc(C(F)(F)F)nc2c(C(F)(F)F)cccc12 (stereo not given) | 130 °C
57 | CCOC(=O)c1cc2cc(OC)c(OC)cc2s1 | 84 to 85 °C
58 | C=CCOCCc1ccc(OCC(O)CNC(C)C)cc1 (stereo not given) | 52 to 53 °C
59 | C=Cc1ccc(C=O)cc1 | 65.9 °C
60 | CC(C)(C)c1cc(CBr)ccc1O[Si](C)(C)C(C)(C)C | 54 to 55 °C
61 | CC(=C1SCCCS1)c1cccc(O)c1 | 63 to 64 °C
62 | COc1cc2cc(C=O)c(Cl)nc2cc1F | 180 °C

Results, then the compound that gave them:

Row | melting point | Structure (SMILES)
63 | 222 to 223 °C | CCCc1ccc(NC2CCN(c3ccc(OC[C@@]4(C)Cn5cc([N+](=O)[O-])nc5O4)cc3)CC2)cc1
64 | 184 to 187 °C | CCOC(=O)c1cn(Cc2c(F)cccc2F)c2cc(Br)c(CBr)cc2c1=O
65 | 196 to 198 °C | O=S(=O)(Nc1ccc(Cl)nn1)c1ccccc1-c1ccccc1
66 | 66 to 70 °C | CC(C)OCCC(=O)C=P(c1ccccc1)(c1ccccc1)c1ccccc1
67 | 30 to 40 °C | C[Si](C)(CCl)c1ccc(-c2ccccc2)cc1
68 | 106 °C | COC(=O)CCCc1cc2nc(Cl)ccc2n1S(=O)(=O)c1ccc(C)cc1
69 | 168 to 169 °C | CN(C)C(=O)c1c(-c2ccc3ccccc3c2)ccc2ccccc12
70 | 166 to 167 °C | COc1ccc(N2CCN(c3c(C)c(C)c4c(c3C)C(=CCc3ccccc3)C(C)(C)O4)CC2)cc1
71 | 195 to 197 °C | COc1ccc(C(=O)Nc2ccccc2)cc1NS(=O)(=O)c1cccc(C)c1
72 | 60 to 61 °C | Cc1cccc(C#Cc2cccc(Br)c2)n1
73 | 168 to 169 °C | COc1ccc(C2Sc3cc(Cl)ccc3NC(=O)C2=O)cc1 (stereo not given)
74 | 140 °C | c1ccc(-c2cc(CCC3CCNC3)c3ccccc3n2)cc1 (stereo not given)
75 | 213 °C | NC(=S)c1ccccc1-c1ccccc1
76 | 58 to 61 °C | COc1ccc2cc([C@H](C)C(=O)OCCSCCO)ccc2c1
77 | 182 to 184 °C | Cc1cc(=O)n2cccc(OCc3ccc(Cl)cc3Br)c2n1
78 | > 250 °C | Nc1nc(N)nc(-c2ccc(-c3ccccc3[N+](=O)[O-])cc2)n1
79 | 93 to 95 °C | C#CCOC(C(=O)NCCc1ccc(O)c(OC)c1)c1ccc(Cl)cc1 (stereo not given)
80 | 151 to 153 °C | COC(=O)CCCc1cc2cc(Cl)ccc2n1S(=O)(=O)c1ccc2nc(C)sc2c1
81 | 95 to 97 °C | CN(CCOc1ccc(CCO)cc1)c1nc2ccccc2o1
82 | 191 to 193 °C | N#Cc1ccc(-c2ccc(C(=O)CCC(=O)O)cc2)cc1
83 | 166 to 167 °C | CCN(CC)C(=O)Nc1cc(-c2c(-c3cccc(C)c3)nc3cccnn23)ccn1
84 | 154 to 157 °C | O=C(OCc1ccccc1)c1ccc(OCc2ccc(COc3ccc(C(=O)OCc4ccccc4)cc3)cc2)cc1

Row | melting point | Structure (SMILES)
85 | 197 to 198 °C | Nc1cc(Oc2ccc(NC(=O)Nc3ccc(Cl)c(C(F)(F)F)c3)cc2)ncn1
86 | 161 to 165 °C | Cc1nc2ccccn2c1-c1csc(Nc2ccc(C(=O)Nc3ccccc3N)cc2)n1
87 | 115 to 116 °C | Cc1cc(=O)c(OCc2ccccc2)c(CO)o1
88 | 128 to 130 °C | CC(C#N)c1cccc2c(-c3ccc(Cl)cc3)nccc12 (stereo not given)
89 | 165 °C | Fc1ccc(Cn2c(NC3CCN(CCNc4nccs4)CC3)nc3cncnc32)cc1
90 | 163 to 165 °C | CN(C(CCn1c(=O)cc(Cl)[nH]c1=O)C(=O)NO)S(=O)(=O)c1ccc(Oc2ccncc2)cc1 (stereo not given)
91 | 172 to 173 °C | CCCN(CC(C)n1c(CCOC)nc2c(N)nc3ccccc3c21)C(N)=S (stereo not given)
92 | 145 to 147 °C | Fc1ccccc1NC(=S)Nc1ncccc1OCc1c(F)cccc1Cl
93 | 116 to 118 °C | COC(=O)c1ccc(CC(C#N)(c2ccccc2Cl)N2CCOCC2)cc1 (stereo not given)
94 | 138 °C | CCCCc1nc2cc3ccccc3cc2n1Cc1ccc(C#N)cc1
95 | 176 to 178 °C | O=C(Nc1ccc(-n2nc(C(F)(F)F)cc2C(F)(F)F)cc1)C1CC1c1ccccc1 (stereo not given)
96 | 168 to 170 °C | Cn1ccc2ccc(/C=C/CN3CCN(C4c5ccccc5CCc5ncccc54)CC3)cc21 (stereo not given)
97 | 173 to 174 °C | CN(C1CCN(Cc2ccsc2)CC1)S(=O)(=O)c1ccc(Nc2nccc(Nc3ccc(F)cc3)n2)cc1
98 | 203 to 206 °C | O=C(O)c1ccc(C(=O)NOCC2CCc3ccccc3C2)cc1 (stereo not given)
99 | 205 °C | CC(=O)c1cc2cnccc2n1S(=O)(=O)c1ccccc1
100 | 98 to 100 °C | N#Cc1ccc(C(=O)c2ccccc2S)cc1
101 | 78 to 80 °C | O=[N+]([O-])c1ccccc1Oc1cc(Cl)cc(Cl)c1
102 | 246 to 248 °C | CNc1nc(-c2cccc(Br)c2)c2cc(OC)c(OC)cc2n1
103 | 296 to 298 °C | O=C(O)/C=C/c1cc(F)c2ncc(C(=O)NCc3ccc(Cl)cc3)c(O)c2c1
104 | 105 °C | COc1ccc2c(-c3ccccc3)c(C(=O)c3cccc(Cl)c3)sc2c1
105 | 160 to 162 °C | S=C=Nc1ccc2sc(-c3cccnc3)nc2c1
